Assays:
[1] = system: mouse cardiac endothelial cells; assay: RNA-Seq of cardiac endothelial cells treated with ldCil; type: cell-based
[2] = system: AngII-stressed mouse cardiomyocytes; assay: Western blot of TCA cycle enzymes in AngII-stressed cardiomyocytes; type: cell-based; conditions: Western blot densitometry
Procedure: Following 5 days culture at 37° C., 5% CO2, primary mouse cardiomyocytes were serum starved for 24 h in a 0.5 FBS-DMEM media. On day 6 cells were washed and refed with complete cardiomyocyte growth medium plus or minus 1 μM angiotensin II (Alfa Aesar), and this was repeated on day 7. In tandem to angiotensin II treatment, cells were either treated with vehicle or low dose Cilengitide (20 nM) (Bachem). On 8-day cardiomyocytes were lysed for RNA analysis.
Cardiomyocytes were prepared and treated as above. At the end of the experiment, cells were lysed with RIPA buffer for 10 min on ice and the cell debris pelleted by centrifugation of the lysate at 9300 g for 10 min at 4° C. Protein concentration was determined from the cell supernatant and 20 μg protein loaded onto 10% gels. Membranes were probed for succinate dehydrogenase (Abcam, ab178423), pyruvate dehydrogenase (Abcam, ab131263), aconitase (Abcam, ab129069) and GAPDH (Millipore, AB2302). Densitometric readings of band intensities were obtained using the JmageJ™ software.

[3] = system: AAC model of heart failure; assay: Cardiac hypertrophy in AAC model (WGA cardiomyocyte perimeter, heart:body weight); type: in vivo, mouse; conditions: intervention mode, AAC surgery
Source text: (§1) Male C57BL6 mice (Charles River) underwent AAC surgery at 4-5 weeks of age (between 20 and 22 g). Mice were anaesthetised with isoflurane, placed in a supine position on the procedure table, and an incision made along the ventral underbelly, extending from the xiphoid process of the sternum, down to the groin to reveal the abdominal muscle. The abdominal muscle was then cut the same distance along the linea alba to allow easy reattachment of the two halves. The two sides of the abdominal muscles were clipped back to reveal the abdominal gastrointestinal organs, and these were carefully manoeuvred to expose the underlying abdominal aorta. […] Hearts were halved longitudinally and either snap frozen in liquid nitrogen (for immunohistochemistry) or stored in an RNA later stabilisation solution (for RT-quantitative PCR) (ThermoFisher Scientific, Hertfordshire, UK).
5 μm snap-frozen sections were fixed in 10% acetone, washed in phosphate buffered saline, PBS, blocked in 5% normal goat serum/PBS for 1 h at room temperature and incubated with WGA directly conjugated to Alexa Fluor 488 (Invitrogen) (1:100) in blocking buffer (5% normal goat serum/PBS) for 2 h at room temperature. […] Images were taken with a Zeiss Axioplan microscope, and the cardiomyocyte size was analysed with ImageJ™ software. 100-200 cells per heart were measured to determine cardiomyocyte size.

Myh7 = Myh7 transcript expression by RT-qPCR, whole heart preparations; type: in vivo, mouse; conditions: FIG. 10: whole heart, AAC surgery, ldCil 3 weeks after surgery, normalised to Gapdh
Source text: as §1, with “aorta. The aorta was cleaned of visceral fats, and carefully separated from parallel vasculature, whilst avoiding any spinal nerves.” for “aorta.”, “UK). […]” for “UK).”
Complementary DNA (cDNA) synthesis was carried out using the Applied Biosystems High Capacity cDNA Reverse Transcription (RT) Kit on a thermal cycler as per the manufacturer's instructions. cDNA was made up to a total quantity of either 600 (most mouse tissue and/or cells), or 1000 ng (human heart tissue). […]

In the case of `CC(C)[C@H]1C(=O)N[C@@H](CCCN=C(N)N)C(=O)NCC(=O)N[C@@H](CC(=O)O)C(=O)N[C@H](Cc2ccccc2)C(=O)N1C` [Cilengitide, c(f*VRGD)], the “concordantly differentially expressed genes” value ([1]; 24 h and 48 h ldCil treatment vs control) is reported as 54 genes, the “expression of proangiogenic or cardioprotective regulators (Csf2rb, Eln, Nov, CCL7, Mt2, Socs2, Fgf23, Slc30a1, Col6a3, Mt1, Ggt5, Adam8)” value ([1]; both 24 h and 48 h) is reported as “differentially upregulated” and the “gene sets involved in mitosis, DNA repair and cell cycle (enrichment analysis)” value ([1]; both timepoints) is reported as “significant increases”. For the same molecule, the “pyruvate dehydrogenase protein expression” value [2] was “rescues the elevated expression”, the “heart:body weight ratio” value [3] was “blunted increases” and the “cardiomyocyte perimeter (WGA stained sections)” value ([3]; compared with vehicle) was “reduced”. For the same molecule, the Myh7 levels (Myh7) was “restored Myh7 levels back to untreated levels”.

— US20220288156A1, “TREATMENT” (QUEEN MARY UNIVERSITY OF LONDON, priority 2019, published 2022)
